# Values joined by “and” are separate entries in the source; they are usually repeats but may differ in a detail not shown here. Equal entries are not always repeated.
# Assays:
# [1] = test system: Human breast cancer MDA MB 231; experiment: Bone metastasis model, Example 1: treatment on Day 10, X-ray on Day 22, survival; type: in vivo, NMRI nude mice
# Description: (§1) Human breast cancer MDA MB 231, injected to NMRI nude mice intracardially
# Four days before tumor cells implantation, the baseline bone structure of the mice was determined by X-ray. 30 NMRI nude mice received 500,000 of MDA-MB 231 breast cancer tumor cells intracardially (Day 0). The tumor cells metastasized to the bones and the growth of the tumor in the bones lead to bone destruction. After the period of 10 days (Day 10), 10 of the […] animals were treated with the Test Compound (10 mg/kg, i.v.). The size and number of bone metastases were monitored 4 days before tumor cell implantation (baseline) and on Day 22 in each animal using the X-ray technology described below.
# The mice underwent an anaesthesia with a mixture of Rompun (Rompun 2% Bayer) diluted with sodium chloride solution(Braun) by 1:10 and Ketavet ( Pharmacia GmbH 100 mg/ml), diluted by 1:5 with isotonic sodium chloride solution. For application of the narcotics, 1 ml sterile syringes (Codan Medical) and cannula (Braun Sterican, size 18) were used.
# Once the tolerance stage was reached, the mice were attached to a 1 mm strong acrylic glass and additionally taped with a self-adhesive tape (sticky side facing the animal). The acrylic glass served as surface on which the animals underwent the X-ray.
# At the console of the Mammomat (run by the software “Detector” (Ifg) on Windows NT platform), the standard setting of 35 kV and 400 mAs was adjusted. The setting was chosen in such a way to allow a good contrasting of the entire skeletal system and visibility of finest changes/aberrations of the bone structure and morphology. The resolution of the systems lies at 0,27 μm.
# After initializing the Software the module “Zoomed Modus” was chosen for the detector and the ROIs 2-3 were selected in accordance with the previously selected positioning of the mouse. The regulator Image High was adjusted to 2000.
# The actual measurements were started as soon as the Offset measurings and the reference measurings had been performed. The flexible table was brought into position (80 mm) and was advanced at a speed of 25,9 mm/sec. The final position of the table was chosen in such a way that the entire body of the mouse could be X-rayed all at once during the examination. The reference measuring was subtracted from each gained Image and was stored as a DICOM-file or as a BMP-file.
# Analysis of the treatment was performed on Day 22 by evaluating twice the constructed exposures of the mice and searching for destructive processes of the skeletal system (focussing mainly on the long bones, spine and pelvis). The extend/area of the destructive processes/bone metastasis were determined with a special DICOM-Software (based on Microsoft Excel).
# [2] = test system: Human breast cancer MDA MB 231; experiment: Bone metastasis model, Example 2: treatment on Day 5, X-ray on Day 20; type: in vivo, NMRI nude mice; details: 10 mg/kg i.v. on Day 5
# Description: as §1
# 30 NMRI nude mice received 500,000 of MDA-MB 231 breast cancer tumor cells intracardially (Day 0). The tumor cells metastasized to the bones and the growth of the tumor in the bones lead to bone destruction. In addition, the development of tumors near the tumor cell injection site is observed. After 5 days (Day 5), 15 of the 30 animals were treated with the Test Compound (10 mg/kg, i.v.). On Day 20 the experiment was terminated and the size and number of bone metastases were measured in each animal using the X-ray technology described in example 1. In addition, the numer of animals which developed tumors at the tumor cell injection site was determined.
# [3] = 10 mg/kg i.v. on Day 10, result in words
# [4] = mean per animal, measured on Day 20 by X-ray, 10 mg/kg
smiles,measurement,setting,value
"C=CCC1C(=O)C(C)(C)C(O)CC(=O)OC(c2ccc3sc(C)nc3c2)CC2OC2(C)CCCC(C)C1O (stereo not shown) [Test Compound, 7,11-dihydroxy-3-(2-methyl-benzothiazol-5-yl)-10-(prop-2-en-1-yl)-8,8,12,16-tetramethyl-4,17-dioxabicyclo[14.1.0]heptadecane-5,9-dione]",Effect on bone metastasis (FIG. 1),[1]; [3],inhibited bone metastasis
same,Effect on life time (FIG. 1),[1]; [3],prolongation of life time was observed
same,Mean Survival Time,"[1]; 10 mg/kg i.v., single application on Day 10, MDA-MB 231 cells intracardially",31.6 days
same,Mean Bone Tumor Area,"[1]; 10 mg/kg i.v., single treatment on Day 10, X-ray analysis on Day 22, MDA-MB 231 cells intracardially",5.9 mm^2
same,Number of bone-metastases,[2]; [4],0.7 and 0.7 ± 0.9
same,Size of bone-metastases,[2]; [4],0.1 mm^2 and 0.1 ± 0.2 mm^2
same,Number of animals which developed tumors at the tumor cell injection site,"[2]; of 15 animals, Day 20",0
